Tests used:
FXR [1] = biological target: T1, FXR (Homo sapiens, UniProt Q96RI1); experiment: In Vitro FXR Assay (PGL3): luciferase reporter in transfected CV-1 cells; assay type: cell-based; details: CV-1 cells transfected with hFXR, hRXR, PGL3-ECRE*6-luc; 18 h incubation; luminescence
T1 construct: expressed in transfected cells; host or cells: CV-1 cells
T1 sequence (Q96RI1 1-486): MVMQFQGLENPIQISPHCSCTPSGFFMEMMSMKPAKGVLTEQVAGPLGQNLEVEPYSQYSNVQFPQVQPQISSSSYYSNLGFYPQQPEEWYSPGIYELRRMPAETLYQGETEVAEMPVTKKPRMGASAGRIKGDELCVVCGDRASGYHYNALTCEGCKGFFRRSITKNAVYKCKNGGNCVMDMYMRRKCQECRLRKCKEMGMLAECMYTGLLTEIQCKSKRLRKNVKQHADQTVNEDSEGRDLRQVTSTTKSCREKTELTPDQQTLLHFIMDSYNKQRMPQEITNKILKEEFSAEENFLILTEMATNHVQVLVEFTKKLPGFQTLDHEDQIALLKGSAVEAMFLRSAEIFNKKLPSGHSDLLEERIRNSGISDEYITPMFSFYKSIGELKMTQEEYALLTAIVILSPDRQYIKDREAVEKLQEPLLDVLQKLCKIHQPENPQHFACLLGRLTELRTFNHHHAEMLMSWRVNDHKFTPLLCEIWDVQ
T1 sequence (P19793 1-462 partner): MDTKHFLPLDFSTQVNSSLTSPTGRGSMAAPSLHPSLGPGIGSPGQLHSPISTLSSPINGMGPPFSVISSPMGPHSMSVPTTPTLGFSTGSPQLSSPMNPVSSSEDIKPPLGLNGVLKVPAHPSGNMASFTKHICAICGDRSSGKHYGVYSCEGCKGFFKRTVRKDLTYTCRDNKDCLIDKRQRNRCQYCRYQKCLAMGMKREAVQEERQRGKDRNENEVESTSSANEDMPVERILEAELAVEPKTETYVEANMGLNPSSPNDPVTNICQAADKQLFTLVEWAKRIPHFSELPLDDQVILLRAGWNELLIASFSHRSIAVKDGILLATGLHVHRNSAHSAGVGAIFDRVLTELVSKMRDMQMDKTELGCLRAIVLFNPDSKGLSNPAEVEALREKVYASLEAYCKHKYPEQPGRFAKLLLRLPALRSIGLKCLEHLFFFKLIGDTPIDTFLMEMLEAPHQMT
Experimental: Example B-1: In Vitro FXR Assay (PGL3)
CV-1 cells were seeded at a density of 2,000,000 cells in a T175 flask with DMEM+10% charcoal double-stripped FBS and incubated at 37° C. in a 5% CO2 for 18 h (O/N).
After 18 h of incubation, the medium in the T175 flask was changed with fresh DMEM+10% charcoal super-stripped serum.
To prepare the transfection reaction mixture, the transfection reagent (X-tremeGENE HP from Roche, Cat #06 366 236 001) was added in to a 1.5 mL microcentrifuge tube labelled “A” at a ratio of 1:3 (DNA in transfection reagent in μL). OptiMEM medium (Life Technologies, Cat #31985-062) was added accordingly to provide a total volume of 1 mL. The transfection reaction mixture was then briefly vortexed and incubated at room temperature for 5 minutes.
In a separate 1.5 mL microcentrifuge tube labelled “B”, 100 μL OptiMEM and plasmids XPD90Gal pCMXhFXRfl, pCMXhRXRfl+PGL3-ECRE*6-luc+CMX-YFP in the ratio 2 μg:2 μg:18 μg:3 μg were added. This microcentrifuge tube “B” was then briefly vortexed and incubated at room temperature for 5 minutes.
The total volume in tube labelled “A” was then transferred in to tube labelled “B.” The mixture was then briefly vortexed and the transfection:DNA complex was then incubated for about 15-20 minutes at room temperature.
Following incubation, the transfection reagent/DNA mixture complex was then added to cells in the T175 flask and the cells were incubated at […] (O/N) at 37° C. in 5% CO2.
In a 96 well plate, a half logarithmic serial dilution was prepared. OptiMEM was used as the diluent. Using any of one of the compounds described herein, a compound stock solution of 10 mM was prepared. An initial 1:100 dilution was made into the first well for a final concentration of 100 μM. The final concentrations in the 96-well plate was prepared by using a multichannel pipette to transfer 5 μL of the diluted compound to 384-well plate in quadruplicate.
Cells in T175 flask were trypsinized and cells were resuspended in 40 mL phenol red free DMEM+10% charcoal super-stripped FBS. Typically, one T175 flask was sufficient to seed two 384 well plates. CV-1 cells were seeded at 45 μL cell suspension/well using a multi-channel pipet or a 384 multidrop dispenser. The cells were then incubated for 18 hrs, overnight.
After removing the plates from the incubator, the medium was flicked out of plate and 384 well plate was turned upside down onto paper towel. The remaining medium was gently tapped out. 15 μL lysis buffer was then added to each well using a multichannel pipet or a 384 well multi-drop dispenser. After incubation for 10 minutes at room temperature on shaker, 30 μL Luciferase buffer was added to each well. Luminescence counts were taken immediately using the Perkin Elmer Envision.
The ability of the compounds disclosed herein to […] FXR activity was quantified and the respective EC50 value was determined. Fex=fexaramine.

FXR [2] = biological target: T1, FXR; experiment: In Vitro FXR Assay (TK): TK-ECRE-luc reporter in transfected CV-1 cells; assay type: cell-based; details: CV-1 cells transfected with hFXR, hRXR, 18 h incubation, luminescence
Procedure, shortened: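 Luciferase read-out from lysed CV-1 cells exposed 18 h to DMSO-diluted compounds. Cells had been transfected overnight with expression plasmids for hFXR and hRXR plus TK-ECRE-luc reporter and pCMX-YFP, grown in charcoal-stripped serum at 37 °C, 5% CO2.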

In the case of `COC(=O)/C=C/c1cccc(N(Cc2ccc(-c3ccc(N(C)C)cc3)cc2)C(=O)C(C)(C)C)c1` [compound 1, (E)-Methyl 3-(3-(N-((4′-(dimethylamino)-[1,1′-biphenyl]-4-yl)methyl)pivalamido)phenyl)acrylate], the “Cmpd/Fex (ratio of the EC50 for the test compound relative to the EC50 of the Fexaramine control)” value (FXR [1]) is reported as “+++ (‘+++’ means Cmpd/Fex < 10)” and the EC50 (FXR [2]) is reported as 1 to 10 µM.

`CCCC(=O)N(Cc1ccc(-c2ccc(N(C)C)cc2)cc1)c1cccc(/C=C/C(=O)OC)c1` [compound 2, (E)-Methyl 3-(3-(N-((4′-(dimethylamino)-[1,1′-biphenyl]-4-yl)methyl)butyramido)phenyl)acrylate] was tested, and the “Cmpd/Fex (ratio of the EC50 for the test compound relative to the EC50 of the Fexaramine control)” value (FXR [1]) was “++ (‘++’ means Cmpd/Fex > 10 & < 100)” and the EC50 (FXR [2]) was 1 to 10 µM.

For `CCOC(=O)N(Cc1ccc(-c2ccc(N(C)C)cc2)cc1)c1cccc(/C=C/C(=O)OC)c1` [compound 3, (E)-Methyl 3-(3-(((4′-(dimethylamino)-[1,1′-biphenyl]-4-yl)methyl)(ethoxycarbonyl)amino)phenyl)acrylate], the “Cmpd/Fex (ratio of the EC50 for the test compound relative to the EC50 of the Fexaramine control)” value (FXR [1]) was “++ (‘++’ means Cmpd/Fex > 10 & < 100)” and the EC50 (FXR [2]) was 1 to 10 µM.

With `COC(=O)/C=C/c1cccc(N(Cc2ccc(-c3ccc(N(C)C)cc3)cc2)C(=O)c2ccc(C#N)cc2)c1` [compound 4, (E)-Methyl 3-(3-(4-cyano-N-((4′-(dimethylamino)-[1,1′-biphenyl]-4-yl)methyl)benzamido)phenyl)acrylate] the “Cmpd/Fex (ratio of the EC50 for the test compound relative to the EC50 of the Fexaramine control)” value (FXR [1]) was “+++ (‘+++’ means Cmpd/Fex < 10)” and the EC50 (FXR [2]) was 1 to 10 µM.

With `COC(=O)/C=C/c1cccc(N(Cc2ccc(-c3ccc(N(C)C)cc3)cc2)C(=O)C2CCOCC2)c1` [compound 5, (E)-Methyl 3-(3-(N-((4′-(dimethylamino)-[1,1′-biphenyl]-4-yl)methyl)tetrahydro-2H-pyran-4-carboxamido)phenyl)acrylate] the “Cmpd/Fex (ratio of the EC50 for the test compound relative to the EC50 of the Fexaramine control)” value (FXR [1]) was “+++ (‘+++’ means Cmpd/Fex < 10)” and the EC50 (FXR [2]) was ≤ 1 µM.

With `COC(=O)/C=C/c1cccc(N(Cc2ccc(-c3ccc(N(C)C)cc3)cc2)C(=O)C2COC2)c1` [compound 6, (E)-Methyl 3-(3-(N-((4′-(dimethylamino)-[1,1′-biphenyl]-4-yl)methyl)oxetane-3-carboxamido)phenyl)acrylate] the “Cmpd/Fex (ratio of the EC50 for the test compound relative to the EC50 of the Fexaramine control)” value (FXR [1]) was “++ (‘++’ means Cmpd/Fex > 10 & < 100)” and the EC50 (FXR [2]) was 1 to 10 µM.

`COC(=O)/C=C/c1cccc(N(Cc2ccc(-c3ccc(N(C)C)cc3)cc2)C(=O)CC(C)(C)C)c1` [compound 7, (E)-Methyl 3-(3-(N-((4′-(dimethylamino)-[1,1′-biphenyl]-4-yl)methyl)-3,3-dimethylbutanamido)phenyl)acrylate] was tested, and the “Cmpd/Fex (ratio of the EC50 for the test compound relative to the EC50 of the Fexaramine control)” value (FXR [1]) was “+++ (‘+++’ means Cmpd/Fex < 10)” and the EC50 (FXR [2]) was ≤ 1 µM.

In the case of `COC(=O)/C=C/c1cccc(N(Cc2ccc(-c3ccc(N(C)C)cc3)cc2)C(=O)[C@H]2CC[C@@H](OC)CC2)c1` [compound 8, (E)-Methyl 3-(3-((1r,4r)-N-((4′-(dimethylamino)-[1,1′-biphenyl]-4-yl)methyl)-4-methoxycyclohexanecarboxamido)phenyl)acrylate], the “Cmpd/Fex (ratio of the EC50 for the test compound relative to the EC50 of the Fexaramine control)” value (FXR [1]) is reported as “+++ (‘+++’ means Cmpd/Fex < 10)” and the EC50 (FXR [2]) is reported as ≤ 1 µM.

In the case of `COC(=O)/C=C/c1cccc(N(Cc2ccc(-c3ccc(N(C)C)cc3)cc2)C(=O)[C@H]2CC[C@H](OC)CC2)c1` [compound 9, (E)-Methyl 3-(3-((1s,4s)-N-((4′-(dimethylamino)-[1,1′-biphenyl]-4-yl)methyl)-4-methoxycyclohexanecarboxamido)phenyl)acrylate], the “Cmpd/Fex (ratio of the EC50 for the test compound relative to the EC50 of the Fexaramine control)” value (FXR [1]) is reported as “+++ (‘+++’ means Cmpd/Fex < 10)” and the EC50 (FXR [2]) is reported as ≤ 1 µM.

For `COC(=O)/C=C/c1cccc(N(Cc2ccc(-c3ccc(N(C)C)cc3)cc2)C(=O)c2ccc(OC)cc2)c1` [compound 10, (E)-Methyl 3-(3-(N-((4′-(dimethylamino)-[1,1′-biphenyl]-4-yl)methyl)-4-methoxybenzamido)phenyl)acrylate], the “Cmpd/Fex (ratio of the EC50 for the test compound relative to the EC50 of the Fexaramine control)” value (FXR [1]) was “+++ (‘+++’ means Cmpd/Fex < 10)” and the EC50 (FXR [2]) was 1 to 10 µM.

For `COC(=O)/C=C/c1cccc(N(Cc2ccc(-c3ccc(N(C)C)cc3)cc2)C(=O)C2CCCCCC2)c1` [compound 11, (E)-Methyl 3-(3-(N-((4′-(dimethylamino)-[1,1′-biphenyl]-4-yl)methyl)cycloheptanecarboxamido)phenyl)acrylate], the “Cmpd/Fex (ratio of the EC50 for the test compound relative to the EC50 of the Fexaramine control)” value (FXR [1]) was “+++ (‘+++’ means Cmpd/Fex < 10)” and the EC50 (FXR [2]) was ≤ 1 µM.

In the case of `COC(=O)/C=C/c1cccc(N(Cc2ccc(N3CCN(C)CC3)cc2)C(=O)C2CCCCC2)c1` [compound 76, (E)-Methyl 3-(3-(N-(4-(4-methylpiperazin-1-yl)benzyl)cyclohexanecarboxamido)phenyl) acrylate], the “Cmpd/Fex (ratio of the EC50 for the test compound relative to the EC50 of the Fexaramine control)” value (FXR [1]) is reported as “+ (‘+’ means Cmpd/Fex > 100)”.

For `COC(=O)/C=C/c1cccc(N(Cc2ccc(N3CCNCC3)cc2)C(=O)C2CCCCC2)c1` [compound 79, (E)-Methyl 3-(3-(N-(4-(piperazin-1-yl)benzyl)cyclohexanecarboxamido)phenyl) acrylate], the “Cmpd/Fex (ratio of the EC50 for the test compound relative to the EC50 of the Fexaramine control)” value (FXR [1]) was “+ (‘+’ means Cmpd/Fex > 100)”.

For `COC(=O)/C=C/c1cccc(N(Cc2ccc(NC(=O)c3ccccc3)cc2)C(=O)C2CCCCC2)c1` [compound 100, (E)-Methyl 3-(3-(N-(4-benzamidobenzyl)cyclohexanecarboxamido)phenyl)acrylate], the EC50 (FXR [2]) was 1 to 10 µM.

With `COC(=O)/C=C/c1cccc(N(Cc2ccc(N(C)C(=O)c3ccccc3)cc2)C(=O)C2CCCCC2)c1` [compound 101, (E)-Methyl 3-(3-(N-(4-(N-methylbenzamido)benzyl)cyclohexane-carboxamido)phenyl)acrylate] the EC50 (FXR [2]) was > 10 µM.

For `COC(=O)/C=C/c1cccc(N(Cc2ccc(NCc3ccccc3)cc2)C(=O)C2CCCCC2)c1` [compound 102, (E)-Methyl 3-(3-(N-(4-(benzylamino)benzyl)cyclohexane-carboxamido)phenyl)acrylate], the EC50 (FXR [2]) was 1 to 10 µM.

In the case of `COC(=O)/C=C/c1cccc(N(Cc2ccc(N(C)Cc3ccccc3)cc2)C(=O)C2CCCCC2)c1` [compound 103, (E)-Methyl 3-(3-(N-(4-(benzyl(methyl)amino)benzyl)cyclo-hexanecarboxamido)phenyl)acrylate], the EC50 (FXR [2]) is reported as > 10 µM.

From patent US10626081B2, “Farnesoid X receptor agonists and uses thereof” (Metacrine, Inc., priority 2015, dated 2020)
